From patent publication EP0384522A1, “Antiviral tetrahydroimidazo[1,4]benzodiazepin-2-thiones” (priority 1989, dated 1990)
≈ marks a conversion by molar mass, not a printed value. Read-outs that look alike come from different tables or passages of the source.

Columns and labels:
Assay type in all cases: cell-based
in vitro = conditions: human, mt-4 cells, CD₅₀ (50% cytotoxic dose)
Experimental: (§1) A rapid, sensitive and automated assay procedure was used for the in-vitro evaluation of anti-HIV agents. An […] T4-cell line, MT-4, which was previously shown (Koyanagi et al., Int. J. Cancer, 36, 445-451, 1985) to be highly susceptible to and permissive for HIV infection, served as the target cell line. Inhibition of the HIV-induced cytopathic effect was used as the end point. The viability of both HIV- and mock-infected cells was assessed spectrophotometrically via the in-situ reduction of 3-(4,5-dimethylthiazol-2-yl)-2,5-diphenyltetrazolium bromide (MTT). The 50% cytotoxic dose (CD₅₀ in µg/ml) was defined as the concentration of compound that reduced the absorbance of the mock-infected control sample by 50%. The percent protection achieved by the compound in HIV-infected cells was calculated by the following formula: [formula] whereby (ODT)HIV is the optical density measured with a given concentration of the test compound in HIV-infected cells; (ODC)HIV is the optical density measured for the control untreated HIV-infected cells; (ODC)MOCK is the optical density measured for the control untreated mock-infected cells; all optical density values were determined at 540 nm. The dose achieving 50% protection according to the above formula was defined as the 50% effective dose (ED₅₀ in µg/ml). The ratio of CD₅₀ to ED₅₀ was defined as the selectivity index (SI).

HIV = test: Inhibition of the HIV-induced cytopathic effect in MT-4 cells (MTT assay); conditions: for EC50: Human immunodeficiency virus 1, MT4, dose achieving 50% protection of HIV-infected MT-4 cells, read-out: ED₅₀ (50% effective dose); for EC50 / ED₅₀ (50% effective dose): MTT, 540 nm; for ED₅₀ (50% effective dose): dose achieving 50% protection of HIV-infected MT-4 cells
Experimental: as §1

mock-infected MT-4 cells = test: in vitro; conditions: human
Experimental: as §1

Row | Compound | CC50 (in vitro) [µg/mL] | EC50 (HIV) [µg/mL] | SI (selectivity index) (HIV; ratio of CD₅₀ to ED₅₀) | CD₅₀ (50% cytotoxic dose) (mock-infected MT-4 cells) [µg/mL] | SI (selectivity index) (HIV) | ED₅₀ (50% effective dose) (HIV) [µg/mL]
1 | CC(C)=CCN1Cc2cccc3[nH]c(=S)n(c23)CC1C (racemic) [compound 4, (±)-4,5,6,7-tetrahydro-5-methyl-6-(3-methyl-2-butenyl)imidazo[4,5,1-jk][1,4]benzodiazepine-2(1H)-thione] | 25 (≈ 87 µM) | 0.013 (≈ 0.0452 µM) | 1923 | – | – | –
2 | CCCN1Cc2cccc3[nH]c(=S)n(c23)CC1C (stereo not drawn) [compound 1, 4,5,6,7-tetrahydro-5-methyl-6-propylimidazo-[4.5.1-jk][1,4]benzodiazepine-2(1H)-thione] | 147 (≈ 562 µM) | 0.155 (≈ 0.593 µM) | 948 | – | – | –
3 | CC(C)=CCN1Cc2cc(Cl)cc3[nH]c(=S)n(c23)C[C@@H]1C [compound 3, (+)-(S)-9-chloro-4,5,6,7-tetrahydro-5-methyl-6-(3-methyl-2-butenyl)imidazo[4,5,1-jk][1,4]benzodiazepine-2(1H)-thione] | – | – | – | 10 | 20400 | 0.0005
4 | CC(C)=CCN1Cc2cccc3[nH]c(=S)n(c23)C[C@@H]1C [compound 5, (+)-(S)-4,5,6,7-tetrahydro-5-methyl-6-(3-methyl-2-butenyl)imidazo[4,5,1-jk] [1,4]benzodiazepine-2(1H)-thione] | 325 (≈ 1130 µM) | 0.008 (≈ 0.0278 µM) | 40625 | – | – | –
5 | CC(C)=CCN1Cc2cccc3[nH]c(=S)n(c23)C[C@H]1C [compound 6] | ≥ 250 | 0.045 (≈ 0.157 µM) | ≧5555 | – | – | –
6 | CC(C)=CCN1Cc2cc(Cl)cc3[nH]c(=S)n(c23)C[C@@H]1C [compound 7] | – | – | – | 23 | 12778 | 0.0018
7 | C=C(C)CN1Cc2cccc3[nH]c(=S)n(c23)C[C@@H]1C [compound 8] | 4.6 (≈ 16.8 µM) | 0.0126 (≈ 0.0461 µM) | 365 | – | – | –
8 | C[C@H]1Cn2c(=S)[nH]c3cccc(c32)CN1CC1CC1 [compound 9] | > 250 | 0.0166 (≈ 0.0607 µM) | >15029 | – | – | –
